From patent US20040121307A1, “Early detection of cellular differentiation using optophoresis” (Genoptix, Inc, priority 2002, published 2004)
Values after ≈ are worked out from the molar mass of the structure shown. Values joined by “and” are separate entries in the source; they are usually repeats but may differ in a detail not shown here. Identical values can stand only once.

Legend:
U937 cells = assay: Experiment 13: quantitative determination of PKC activation, escape velocity dose response; format: cell-based; conditions: for escape velocity, Average: five hours
Method: Optophoretic analysis was used to develop a full dose response curve for U937 cells treated with PMA. U937 cells were incubated with varying amounts of PMA dissolved in DMSO. The following concentrations of PMA were tested: 0.156 ng/ml, 0.312 ng/ml, 0.625 ng/ml, 1.25 ng/ml, 2.5 ng/ml, 5 ng/ml, and no PMA (control). The cells were incubated with the PMA solutions (or simply DMSO in the case of the control) for five hours. At the end of the incubation period, the cells were centrifuged down for five minutes at 5000 rpm. The supernatent was then removed and the pellet resuspended in 1 ml PBS/1% BSA buffer plus 1:10 trypan blue. The cells were then loaded onto a cover slip containing agarose that was spin-coated onto the surface thereof. Escape velocity measurements were then taken using a 100 mW laser having a beam diameter of 28 pixels. Table 9 reproduced below sets forth the measured escape velocities (μm/sec) for each of the various PMA concentrations.
The method described above may be used to quantitatively determine the level of PKC activation in cells in response to exposure to PKC activating compound using a moving optical gradient. The method includes the steps of first providing a series of cell samples and exposing the series of cell samples to different concentrations of the PKC activating compound. After a period of incubation from about one to several hours, the cells and the optical gradient are moved relative to each other so as to cause displacement of at least some of the cells. Next, the displacement of at least a portion of the displaced cells is measured for each of the different concentrations. […] From the dose response curve, one is able to calculate one or more numerical values that correlate to PKC potency and/or efficacy. For example, the dose response curve can be used to calculate the EC50, Hill slope, or plateau value relative to a standard compound.

HL-60 cells = assay: Cellular differentiation of HL-60, escape velocity; format: cell-based
Excerpt: HL-60 is a promyelocytic leukemia cell line that retains the capacity to undergo terminal differentiation and serves as a model system to study myeloid pathways of cellular differentiation. It is known that treatment of HL-60 cells with phorbol 12-myristate 13-acetate (PMA) causes the cells to differentiate into monocytes/macrophages. In addition, it is also known that treatment of HL-60 cells with dimethylsulfoxide (DMSO) causes these same cells to undergo granulocytic differentiation.
Initial tests were performed using HL-60 cells treated with PMA. HL-60 cells were seeded at about 1-3×10^6 cells per well in six well plates. The cells were treated with 200 ng/ml PMA while the control cells were treated with ethanol (EtOH) vehicle for four hours at 37° C. After incubation for four hours the treated cells were washed with PBS and re-fed with growth media. The treated HL-60 cells were then allowed to differentiate for 72 hours in normal growth media. After the 72 hour period, the untreated control cells were collected by centrifugation, washed with PBS and pelleted for resuspension at 1.5×10^6 cells/ml in PBS/1% BSA. Treated cells were trypsinized and collected by centrifugation then washed in PBS and pelleted for resuspension at 1×10^6 cells/ml in PBS/1% BSA. The cells were the subjected to Optophoretic analysis by measuring the escape velocities of the treated and control cells. Table 23 shown below illustrates the measured escape velocities of the undifferentiated and differentiated cells at 72 hours post treatment.

CCCCCCCCCCCCCC(=O)O[C@@H]1[C@@H](C)[C@@]2(O)[C@@H](C=C(CO)C[C@]3(O)C(=O)C(C)=C[C@@H]23)[C@@H]2C(C)(C)[C@]12OC(C)=O [PMA, phorbol 12 myristate 13-acetate]
escape velocity, Average (U937 cells; 1.25 ng/ml PMA): 17.0 μm/sec | escape velocity, Average (U937 cells; 2.5 ng/ml PMA): 17.0 μm/sec | escape velocity, Average (U937 cells; 5 ng/ml PMA): 17.3 μm/sec | escape velocity, Average (U937 cells; .156 ng/ml PMA): 15.8 μm/sec | escape velocity, Average (U937 cells; .312 ng/ml PMA): 16.0 μm/sec | escape velocity, Average (U937 cells; .625 ng/ml PMA): 16.6 μm/sec | EC50 (U937 cells; Homo sapiens, U-937, 5 h, U937 cells, five hours (FIG. 53), read-out: EC50 value of the PMA dose response curve (escape velocity)): ~0.625 ng/mL (≈ 1.01 nM) | escape velocity, Average (HL-60 cells; HL-60 + PMA at 72 hours (differentiated), 200 ng/ml PMA for four hours): 14.0 μm/sec | Escape Velocity, individual cell (HL-60 cells; HL-60 + PMA at 72 hours (differentiated), 200 ng/ml PMA for four hours, Cell No. 1 to 20): 14.0 μm/sec (3×) and 12.5 μm/sec (3×) and 16.5 μm/sec and 14.5 μm/sec (3×) and 13.0 μm/sec (2×) and 13.5 μm/sec (2×) and 15.5 μm/sec (2×) and 15.0 μm/sec (2×) and 16.0 μm/sec and 11.0 μm/sec | increase in measured escape velocity as compared to the control cells (HL-60 cells; HL-60 + PMA at 72 hours, on average): about 2 μm/sec
